# Measured values: PMC3813382 (The Journal of General Physiology, 2013)
# Positions count from the first letter of the chain named.
# Legend:
# M262A Slo2.1 channels = target: T1, M262A Slo2.1 channels (Homo sapiens, UniProt Q6UVM3, M262A); experiment: Activation of ISlo2.1 by NFA, two-electrode voltage clamp in oocytes; format: cell-based
# T1 sequence (Q6UVM3 1-1135 M262A): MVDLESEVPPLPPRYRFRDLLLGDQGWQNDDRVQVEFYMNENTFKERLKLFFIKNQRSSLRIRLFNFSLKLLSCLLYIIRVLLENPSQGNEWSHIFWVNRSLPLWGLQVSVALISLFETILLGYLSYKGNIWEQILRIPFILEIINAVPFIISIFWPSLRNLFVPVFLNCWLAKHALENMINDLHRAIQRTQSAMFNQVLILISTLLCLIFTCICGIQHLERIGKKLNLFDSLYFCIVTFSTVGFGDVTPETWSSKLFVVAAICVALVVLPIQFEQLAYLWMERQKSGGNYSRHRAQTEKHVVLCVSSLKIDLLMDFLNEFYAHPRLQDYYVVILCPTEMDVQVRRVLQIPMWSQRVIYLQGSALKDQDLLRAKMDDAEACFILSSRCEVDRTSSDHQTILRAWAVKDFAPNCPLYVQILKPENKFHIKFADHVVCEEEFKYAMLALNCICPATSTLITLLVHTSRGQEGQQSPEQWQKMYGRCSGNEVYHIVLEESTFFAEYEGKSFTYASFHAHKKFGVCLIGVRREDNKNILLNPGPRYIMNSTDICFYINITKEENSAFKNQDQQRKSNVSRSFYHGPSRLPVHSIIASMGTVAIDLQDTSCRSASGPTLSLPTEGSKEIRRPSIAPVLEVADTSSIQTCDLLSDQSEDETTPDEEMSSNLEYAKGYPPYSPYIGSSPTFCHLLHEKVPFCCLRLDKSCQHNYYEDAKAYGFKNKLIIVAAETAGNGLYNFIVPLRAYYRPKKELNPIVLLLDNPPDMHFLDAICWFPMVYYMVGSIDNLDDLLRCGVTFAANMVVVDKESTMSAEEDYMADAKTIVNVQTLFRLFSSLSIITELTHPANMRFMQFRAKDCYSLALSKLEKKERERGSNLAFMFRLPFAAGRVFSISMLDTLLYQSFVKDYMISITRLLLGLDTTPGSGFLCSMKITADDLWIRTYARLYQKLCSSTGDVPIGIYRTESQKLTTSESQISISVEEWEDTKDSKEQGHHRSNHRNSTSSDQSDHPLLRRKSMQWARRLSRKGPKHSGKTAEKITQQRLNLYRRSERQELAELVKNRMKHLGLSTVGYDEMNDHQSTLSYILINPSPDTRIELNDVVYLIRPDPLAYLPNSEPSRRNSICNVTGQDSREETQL
# C236A Slo2.1 channels = target: T2, C236A Slo2.1 channels (Homo sapiens, UniProt Q6UVM3, C236A); experiment: as above; format: cell-based; details: 1 mM NFA, 0 mV
# T2 sequence (Q6UVM3 1-1135 C236A): T1 sequence (Q6UVM3 1-1135 M262A) with C236A, A262M
smiles,measurement,setting,value
"O=C(O)c1cccnc1Nc1cccc(C(F)(F)F)c1 [NFA, niflumic acid]",EC50,M262A Slo2.1 channels,660 ± 130 µM
same,Hill coefficient nH of NFA activation,M262A Slo2.1 channels; M262A,1.4 ± 0.06
same,response of C236A channels to NFA,C236A Slo2.1 channels,insensitive to 1 mM NFA
